Source: patent publication US7928182B2, “Glycerol polycarbonate, organic compositions containing same and method for obtaining said compositions” (Condat S.A., priority 2004, dated 2011)

What was measured:
Type in all cases: physicochemical
[1] = Surface tension (ring tensiometer); details: 25° C., glycerol carbonate alone; in mN/m (unit assumed)
[2] = Density (densimeter); details: 25° C., glycerol carbonate alone; in g/cm3 (unit assumed)
[3] = Combustion heat (ASTM D240); details: reference samples and control
Experimental: b) The combustion heat (kJ/g) was also measured according to standard ASTM D240. The combustion heat characterises the calorific energy released by a burning compound. The higher this value is, the better fuel a compound is and the more the “fire” is maintained by this factor, which is the temperature.

SMILES	Surface tension [1]	Density [2]	Combustion heat [3] [kJ/g]
O=C1OCC(CO)O1 (centres unmarked) [glycerol carbonate]	53.81	1.386	–
CO [Methanol]	–	–	19.6
CCO [Ethanol]	–	–	26.4
CCCCCCC [Heptane]	–	–	40.2
